Measurements from patent US9334265B2, “3-amino-pyrazole derivatives useful against tuberculosis” (GLAXO GROUP LIMITED, priority 2010, dated 2016).
≈ marks a conversion by molar mass, not a printed value. Where “and” joins values, the source holds several entries; their conditions need not be identical. Identical values can stand only once. Like-named read-outs stand apart in the source and are kept apart here.

Columns and labels:
[1] = molecular target: T1, InhA (Mycobacterium tuberculosis, UniProt P9WGR1); experiment: Mycobacterium tuberculosis InhA Inhibition Assay (Enzyme Assay); type: biochemical; conditions: 5 nM InhA, 50 μM DDCoA, 50 μM NADH, PIPES buffer pH 6.8, initial velocities of NADH consumption
T1 construct: made in house; host or cells: E. coli
T1 sequence (P9WGR1 whole entry, looked up): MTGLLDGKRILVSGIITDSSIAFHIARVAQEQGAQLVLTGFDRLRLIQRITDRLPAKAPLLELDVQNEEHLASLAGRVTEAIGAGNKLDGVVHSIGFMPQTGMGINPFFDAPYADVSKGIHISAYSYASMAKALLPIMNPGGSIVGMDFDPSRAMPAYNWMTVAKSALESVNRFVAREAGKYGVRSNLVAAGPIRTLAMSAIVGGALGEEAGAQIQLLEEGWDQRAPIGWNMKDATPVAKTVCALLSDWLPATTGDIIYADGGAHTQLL
Description: InhA is able to reduce 2-trans enoyl-CoA esters with concomitant oxidation of NADH to NAD^+. The assay format is based on the kinetic detection of NADH consumption.
Assay for InhA inhibition is carried out with mycobacterium recombinant protein expressed and purified form E. coli. Standard assay conditions for the determination of kinetic constants and inhibitors activity use 5 nM of InhA, 50 μM of Dodecenoyl-CoA synthesized and purified as described by Quémard et al (DDCoA) and 50 μM of NADH as substrates, and it is carried out in 30 mM PIPES buffer pH 6.8, containing 0.05% of BSA. […] Triclosan is used as positive control in every experiment. One μl of compounds is added to the wells containing 25 μl of the DDCoA+NADH mix, the reaction is started by adding 50 μl of the enzyme solution. Fluorescence from NADH is followed at room temperature during 20 minutes in a fluorescent plate reader (excitation at 340 nm; emission at 480 nm). IC50 values are determined using initial velocities of NADH consumption. • Quémard A, Sacchettini J C, Dessen A, et al. Enzymatic characterization of the target for isoniazid in Mycobacterium tuberculosis. Biochemistry 1995; 34:8235-41. Results of the Mycobacterium tuberculosis InhA Inhibition Assay (Enzyme Assay)

[2] = tested on: Mycobacterium tuberculosis H37Rv; experiment: Mycobacterium tuberculosis H37Rv Inhibition Assay (Whole Cell Assay); type: cell-based; conditions: ATCC 25618 / H37Rv, H37Rv strain (ATCC25618), Middlebrook 7H9, six days at 37° C., resazurin fluorescence after 48 hours

Compound	IC50 ([1]; read-out: IC50 value) [nM]	MIC [2] [µM]	IC50 ([1]; IC50 value)
Cc1ccn(C(C)c2nnc(Nc3ccn(Cc4ncccc4F)n3)s2)n1 (racemic) [Example 13, N-{1-[(3-fluoro-2-pyridinyl)methyl]-1H-pyrazol-3-yl}-5-[1-(3-methyl-1H-pyrazol-1-yl)ethyl]-1,3,4-thiadiazol-2-amine]	≤ 130	≤ 4	–
Cc1csc(C(C)(O)c2nnc(Nc3ccn(Cc4csc(C)n4)n3)s2)n1 (racemic) [Example 21, 1-(4-methyl-1,3-thiazol-2-yl)-1-[5-({1-[(2-methyl-1,3-thiazol-4-yl)methyl]-1H-pyrazol-3-yl}amino)-1,3,4-thiadiazol-2-yl]ethanol]	≤ 119	≤ 1	–
Cc1csc(C(C)(O)c2nnc(Nc3ccn(Cc4ncccc4F)n3)s2)n1 (racemic) [Example 38, 1-[5-({1-[(3-fluoro-2-pyridinyl)methyl]-1H-pyrazol-3-yl}amino)-1,3,4-thiadiazol-2-yl]-1-(4-methyl-1,3-thiazol-2-yl)ethanol]	≤ 120	≤ 1	–
Cc1ccn([C@H](C)c2nnc(Nc3ccn(Cc4ncccc4F)n3)s2)n1 (single isomer, unassigned) [Example 39]	–	> 10	260 to 1300 nM
Cc1ccn([C@@H](C)c2nnc(Nc3ccn(Cc4ncccc4F)n3)s2)n1 (single isomer, unassigned) [Example 40]	–	≤ 4	≤ 130 nM
Cc1csc([C@](C)(O)c2nnc(Nc3ccn(Cc4ncccc4F)n3)s2)n1 (single isomer, unassigned) [Example 41]	–	≤ 1	≤ 120 nM
Cc1csc([C@@](C)(O)c2nnc(Nc3ccn(Cc4ncccc4F)n3)s2)n1 (single isomer, unassigned) [Example 42]	–	> 10	240 to 1200 nM
Cc1csc([C@](C)(O)c2nnc(Nc3ccn(Cc4csc(C)n4)n3)s2)n1 (single isomer, unassigned) [Example 43]	–	–	≤ 119 nM
Cc1csc([C@@](C)(O)c2nnc(Nc3ccn(Cc4csc(C)n4)n3)s2)n1 (single isomer, unassigned) [Example 44]	–	> 10	238 to 1190 nM
Cc1cccc(Cn2ccc(Nc3nnc(C(C)n4nc(C)cc4C)s3)n2)n1 (stereo not shown) [Example 1, 5-[1-(3,5-dimethyl-1H-pyrazol-1-yl)ethyl]-N-{1-[(6-methyl-2-pyridinyl)methyl]-1H-pyrazol-3-yl}-1,3,4-thiadiazol-2-amine]	≤ 127	> 10	–
Cc1cc(C)n(C(C)c2nnc(Nc3ccn(Cc4nccc(C)c4F)n3)s2)n1 (stereo not shown) [Example 2, 5-[1-(3,5-dimethyl-1H-pyrazol-1-yl)ethyl]-N-{1-[(3-fluoro-4-methyl-2-pyridinyl)methyl]-1H-pyrazol-3-yl}-1,3,4-thiadiazol-2-amine]	≤ 121	≤ 4	–
Cc1ccn(C(C)c2nnc(Nc3ccn(Cc4nccc(C)c4F)n3)s2)n1 (stereo not shown) [Example 3, N-{1-[(3-fluoro-4-methyl-2-pyridinyl)methyl]-1H-pyrazol-3-yl}-5-[1-(3-methyl-1H-pyrazol-1-yl)ethyl]-1,3,4-thiadiazol-2-amine]	≤ 125	> 10	–
Cc1cc(C)n(C(C)c2nnc(Nc3ccn(Cc4cccnc4)n3)s2)n1 (stereo not shown) [Example 4, 5-[1-(3,5-dimethyl-1H-pyrazol-1-yl)ethyl]-N-[1-(3-pyridinylmethyl)-1H-pyrazol-3-yl]-1,3,4-thiadiazol-2-amine]	≤ 131	> 10	–
Cc1cc(C)n(C(C)c2nnc(Nc3ccn(Cc4ccccn4)n3)s2)n1 (stereo not shown) [Example 5, 5-[1-(3,5-dimethyl-1H-pyrazol-1-yl)ethyl]-N-[1-(2-pyridinylmethyl)-1H-pyrazol-3-yl]-1,3,4-thiadiazol-2-amine]	–	> 10	263 to 1310 nM
Cc1cc(C)n(C(C)c2nnc(Nc3ccn(Cc4ncccc4F)n3)s2)n1 (stereo not shown) [Example 6, 5-[1-(3,5-dimethyl-1H-pyrazol-1-yl)ethyl]-N-{1-[(3-fluoro-2-pyridinyl)methyl]-1H-pyrazol-3-yl}-1,3,4-thiadiazol-2-amine]	≤ 125	≤ 4	–
Cc1cc(C)n(C(C)c2nnc(Nc3ccn(Cc4cccnc4F)n3)s2)n1 (stereo not shown) [Example 7, 5-[1-(3,5-dimethyl-1H-pyrazol-1-yl)ethyl]-N-{1-[(2-fluoro-3-pyridinyl)methyl]-1H-pyrazol-3-yl}-1,3,4-thiadiazol-2-amine]	≤ 125	4 to 10 (≈ 1.59 to 3.98 µg/mL)	–
Cc1cc(C)n(C(C)c2nnc(Nc3ccn(Cc4cnc(C)c(Cl)c4)n3)s2)n1 (stereo not shown) [Example 8, N-{1-[(5-chloro-6-methyl-3-pyridinyl)methyl]-1H-pyrazol-3-yl}-5-[1-(3,5-dimethyl-1H-pyrazol-1-yl)ethyl]-1,3,4-thiadiazol-2-amine]	≤ 117	> 10	–
Cc1cc(C)n(C(C)c2nnc(Nc3ccn(Cc4ncc(Cl)cc4Cl)n3)s2)n1 (stereo not shown) [Example 9, N-{1-[(3,5-dichloro-2-pyridinyl)methyl]-1H-pyrazol-3-yl}-5-[1-(3,5-dimethyl-1H-pyrazol-1-yl)ethyl]-1,3,4-thiadiazol-2-amine]	≤ 111	> 10	–
Cc1ccn(C(C)c2nnc(Nc3ccn(Cc4cccnc4F)n3)s2)n1 (stereo not shown) [Example 10, N-{1-[(2-fluoro-3-pyridinyl)methyl]-1H-pyrazol-3-yl}-5-[1-(3-methyl-1H-pyrazol-1-yl)ethyl]-1,3,4-thiadiazol-2-amine]	–	> 10	130 to 260 nM
CCOc1ncccc1Cn1ccc(Nc2nnc(C(C)n3nc(C)cc3C)s2)n1 (stereo not shown) [Example 11, 5-[1-(3,5-dimethyl-1H-pyrazol-1-yl)ethyl]-N-(1-{[2-(ethyloxy)-3-pyridinyl]methyl}-1H-pyrazol-3-yl)-1,3,4-thiadiazol-2-amine]	–	> 10	> 1180 nM
Cc1csc(C(C)(O)c2nnc(Nc3ccn(Cc4ncc(F)cc4F)n3)s2)n1 (stereo not shown) [Example 12, 1-[5-({1-[(3,5-difluoro-2-pyridinyl)methyl]-1H-pyrazol-3-yl}amino)-1,3,4-thiadiazol-2-yl]-1-(4-methyl-1,3-thiazol-2-yl)ethanol]	–	≤ 4	115 to 230 nM
Cc1csc(C(C)(O)c2nnc(Nc3ccn(Cc4ncccc4C)n3)s2)n1 (stereo not shown) [Example 14, 1-[5-({1-[(3-methyl-2-pyridinyl)methyl]-1H-pyrazol-3-yl}amino)-1,3,4-thiadiazol-2-yl]-1-(4-methyl-1,3-thiazol-2-yl)ethanol]	–	≤ 1	≤ 121 nM and 9.67 nM
Cc1csc(C(C)(O)c2nnc(Nc3ccn(Cc4ccc5ccccc5n4)n3)s2)n1 (stereo not shown) [Example 15, 1-(4-methyl-1,3-thiazol-2-yl)-1-(5-{[1-(2-quinolinylmethyl)-1H-pyrazol-3-yl]amino}-1,3,4-thiadiazol-2-yl)ethanol]	≤ 111	≤ 4	–
Cc1csc(C(C)(O)c2nnc(Nc3ccn(Cc4ncccc4O)n3)s2)n1 (stereo not shown) [Example 16, 2-{[3-({5-[1-hydroxy-1-(4-methyl-1,3-thiazol-2-yl)ethyl]-1,3,4-thiadiazol-2-yl}amino)-1H-pyrazol-1-yl]methyl}-3-pyridinol]	–	> 10	–
Cc1csc(C(C)(O)c2nnc(Nc3ccn(Cc4csc(N)n4)n3)s2)n1 (stereo not shown) [Example 17, 1-[5-({1-[(2-amino-1,3-thiazol-4-yl)methyl]-1H-pyrazol-3-yl}amino)-1,3,4-thiadiazol-2-yl]-1-(4-methyl-1,3-thiazol-2-yl)ethanol]	–	> 10	238 to 1190 nM
Cc1csc(C(C)(O)c2nnc(Nc3ccn(Cc4cccc(F)n4)n3)s2)n1 (stereo not shown) [Example 18, 1-[5-({1-[(6-fluoro-2-pyridinyl)methyl]-1H-pyrazol-3-yl}amino)-1,3,4-thiadiazol-2-yl]-1-(4-methyl-1,3-thiazol-2-yl)ethanol]	≤ 120	≤ 1	–
Cc1csc(C(C)(O)c2nnc(Nc3ccn(Cc4nccc5ccccc45)n3)s2)n1 (stereo not shown) [Example 19, 1-(5-{[1-(1-isoquinolinylmethyl)-1H-pyrazol-3-yl]amino}-1,3,4-thiadiazol-2-yl)-1-(4-methyl-1,3-thiazol-2-yl)ethanol]	≤ 111	4 to 10 (≈ 1.8 to 4.5 µg/mL)	–
Cc1csc(C(C)(O)c2nnc(Nc3ccn(Cc4cccc5cccnc45)n3)s2)n1 (stereo not shown) [Example 20, 1-(4-methyl-1,3-thiazol-2-yl)-1-(5-{[1-(8-quinolinylmethyl)-1H-pyrazol-3-yl]amino}-1,3,4-thiadiazol-2-yl)ethanol]	≤ 111	≤ 4	–
Cc1csc(C(C)(O)c2nnc(Nc3ccn(Cc4cc(C)on4)n3)s2)n1 (stereo not shown) [Example 22, 1-[5-({1-[(5-methyl-3-isoxazolyl)methyl]-1H-pyrazol-3-yl}amino)-1,3,4-thiadiazol-2-yl]-1-(4-methyl-1,3-thiazol-2-yl)ethanol]	124 to 248	4 to 10 (≈ 1.61 to 4.03 µg/mL)	–
Cc1ccn(C(C)c2nnc(Nc3ccn(Cc4csc(C)n4)n3)s2)n1 (stereo not shown) [Example 23, 5-[1-(3-methyl-1H-pyrazol-1-yl)ethyl]-N-{1-[(2-methyl-1,3-thiazol-4-yl)methyl]-1H-pyrazol-3-yl}-1,3,4-thiadiazol-2-amine]	129 to 259	4 to 10 (≈ 1.55 to 3.87 µg/mL)	–
